Counter-ions that a name gives are not always drawn. Like-named read-outs stand apart in the source and are kept apart here.
Experiments:
A2780 = experiment: Anti-proliferative effect (CellTiter-Glo, 72 h), A2780; assay type: cell-based; conditions: A2780 cells, median, read-out: IC50 antiproliferation assay A2780 [M] (median)
Method: (§1) Assessment of the Anti-Proliferative Effect of Compounds in Different Cell Lines
(§2) The impact of compounds on the proliferation of different cell lines was assessed using the CellTiter-Glo® Luminescent Cell Viability reagent from Promega (G7573). Of note, SUDHL10 and SUDHL5 (DLBCL), NCI-H929 (Multiple Myeloma), A2780 (ovarian carcinoma) as well as MV-4-11(AML) cells are sensitive to MCL-1 inhibition.
(§3) In parallel, cells were plated in a reference (day 0) plate for time zero determination.
(§4) Rim wells were excluded. The cells were incubated for 72 h hours in a humidified incubator at 37° C. The day 0 plate was measured by adding 30 μl/well of CTG solution (CellTiter-Glo® Luminescent Cell Viability reagent, Promega G7573) to time zero wells in the reference plate followed by a 10 minutes incubation and luminescence reading at 0.1 ms, using the PHERAstar FS microplate reader (BMG Labtech).
(§5) After 72 h incubation, the treated plates were measured in the same way as the day 0 plate mentioned above.

SUDHL10 [1] = experiment: Induction of cytotoxicity (CellTiter-Glo, 5 h), SUDHL10
SUDHL10 [2] = experiment: Induction of caspase-3/7 activity (Caspase-Glo 3/7), SUDHL10; assay type: cell-based; conditions: caspase-3/7 induction, SUDHL10 cells, 3 h treatment, median
Method: (§6) Induction of Caspase-317 Activity Upon Treatment of Cells with Selected Compounds
(§7) The BH3-domain of MCL-1 sequesters pro-apoptotic proteins, thereby inhibiting apoptosis. In contrast, MCL-1 inhibitors are expected to antagonize this effect leading to an increase in apoptosis, which can be determined by measuring the activity of caspase-3/7.
(§8) The activity of caspase-3/7 was determined in DLBCL (Diffuse large B-cell lymphoma) cell lines (SUDHL5 and SUDHL10) upon treatment with different compounds, using the Caspase-Glo® 3/7 reagent from Promega (G8092).
(§9) Rim wells were excluded. The cells were incubated for 3 h hours in a humidified incubator at 37° C.
(§10) For the evaluation of the results, the background measured with “medium-only” was subtracted from all other values. […] The Bella DRC Master Sheet was used to calculate EC50s, with fixed C0=1 and CI=plateaulmax induction for the reference compound.

MCL-1 = MCL-1 (Homo sapiens, UniProt Q07820); experiment: Protein-protein interaction assay MCL-1/Noxa BH3 peptide (MCL-1 assay), TR-FRET; assay type: binding; conditions: MBP-MCL-1 / Noxa BH3-derived peptide, median
Method: Protein-Protein Interaction Assay: MCL-1/Noxa BH3 Peptide (MCL-1 Assay) […]
In the assay 11 different concentrations of each compound (0.1 nM, 0.33 nM, 1.1 nM, 3.8 nM, 13 nM, 44 nM, 0.15 μM, 0.51 μM, 1.7 μM, 5.9 μM and 20 μM) were typically measured as duplicates in the same microtiter plate. For that, 100-fold concentrated DMSO solutions were prepared by serial dilutions (1:3.4) of a 2 mM stock solution in a clear, 384-well microtiter plate (Greiner Bio-One, Frickenhausen, Germany). From there, 50 ni were transferred in a dark test plate (Greiner Bio-One, Frickenhausen, Germany). The assay was initiated by addition of 2 μl of a 2.5-fold concentrated MBP-MCL-1 solution (usually for a 1 nM end concentration in 5 μl reaction volume) in aqueous assay buffer [50 mM Tris/HCl pH 7, 100 mM sodium chloride (NaCl), 50 mM potassium fluoride (KF), 0.005% Tween-20, 2 mM DTT, 0.1% bovine gamma globulin (BGG)] to the compounds in the assay plate. This was followed by a 10-minute incubation step at 22° C. for pre-equilibration of the putative complex between MBP-MCL-1 and the compounds. After that.
The mixture was incubated in the dark for one hour at 22° C. and then overnight at 4° C. The formation of MCL-1/Noxa complexes was determined by measuring the resonance energy transfer of the anti-MBP- Eu-cryptate antibody to the streptavidin-XL665 present in the reaction. For that purpose, the fluorescence emission at 620 nm and 665 nm after excitation at 330-350 nm was measured in a TR-FRET measuring instrument, for instance a Rubystar or a Pherastar (both from BMG Lab Technologies, Offenburg, Germany) or a Viewlux (Perkin-Elmer). The ratio of the emission at 665 nm and at 622 nm was used as indicator of the amount of MCL-1/NOXA complexes present.
The resulting data (ratio) were normalized, taking 0% inhibition as the mean value of control measurements (usually 32 data points) where all reagents were included. In this case 50 nl DMSO were used instead of compounds. A 100% inhibition corresponded to the mean value of control measurements (usually 32 data points) where all reagents except MCL-1 were included. IC50 values were determined by regression analysis based on a 4 parameter equation (minimum, maximum, IC50, Hill; Y=Max+(Min−Max)/(1+(X/IC50)^Hill) using the Screener Software (Genedata).

SUDHL5 [3] = experiment: Induction of cytotoxicity (CellTiter-Glo, 5 h), SUDHL5
SUDHL5 [4] = experiment: Induction of caspase-3/7 activity (Caspase-Glo 3/7), SUDHL5; assay type: cell-based; conditions: caspase-3/7 induction, SUDHL5 cells, 3 h treatment, median
Method: as §6, §7, §8, §9, §10

SUDHL5 [5] = experiment: Anti-proliferative effect (CellTiter-Glo, 72 h), SUDHL5; assay type: cell-based; conditions: SUDHL5 cells, antiproliferation, 72 h incubation, median, read-out: Antiproli SUDHL5 [M] (median)
Method: as §1, §2, §3, §4, §5

[6] = Homo sapiens, SU-DHL10, 5 h, read-out: Cytotox SUDHL10 [M] (median), SUDHL10 cells, cytotoxicity induction, CellTiter-Glo, 5 h incubation, median
[7] = Homo sapiens, SU-DHL-5, 5 h, read-out: Cytotox SUDHL5 [M] (median), SUDHL5 cells, cytotoxicity induction, CellTiter-Glo, 5 h incubation, median
[8] = read-out: Cytotox SUDHL10 [M] (median), SUDHL10 cells, cytotoxicity induction, CellTiter-Glo, 5 h incubation, median
[9] = read-out: Cytotox SUDHL5 [M] (median), SUDHL5 cells, cytotoxicity induction, CellTiter-Glo, 5 h incubation, median

Chain of MCL-1 (Q07820 whole entry): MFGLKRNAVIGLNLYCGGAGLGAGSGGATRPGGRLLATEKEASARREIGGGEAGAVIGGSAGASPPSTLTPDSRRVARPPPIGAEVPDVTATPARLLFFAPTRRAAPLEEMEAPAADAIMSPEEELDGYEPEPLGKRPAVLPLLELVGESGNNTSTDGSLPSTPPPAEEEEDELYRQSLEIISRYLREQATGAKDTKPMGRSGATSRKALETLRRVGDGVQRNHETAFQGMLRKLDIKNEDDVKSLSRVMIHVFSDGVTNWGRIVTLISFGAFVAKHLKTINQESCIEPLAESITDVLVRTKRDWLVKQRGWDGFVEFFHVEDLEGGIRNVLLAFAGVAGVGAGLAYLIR

SMILES	IC50 (A2780; Homo sapiens, A2780, 72 h) [M]	IC50 (SUDHL10 [1]; [6]) [M]	EC50 (SUDHL10 [2]; Homo sapiens, SU-DHL10, 3 h) [µM]	IC50 (MCL-1) [µM]	IC50 (SUDHL5 [3]; [7]) [M]	EC50 (SUDHL5 [4]; Homo sapiens, SU-DHL-5, 3 h) [µM]	IC50 (SUDHL5 [5]; Homo sapiens, SU-DHL-5, 72 h) [M]	IC50 (A2780) [M]	IC50 (SUDHL10 [1]; [8]) [M]	EC50 (SUDHL10 [2]) [µM]	IC50 (SUDHL5 [3]; [9]) [M]	EC50 (SUDHL5 [4]) [µM]	IC50 (SUDHL5 [5]) [M]
Cn1nc(C(F)(F)F)c2c1COCCCCn1c(C(=O)O)c(CCCOc3cccc4ccccc34)c3cccc-2c31 (racemic) [Example 216, (rac)-1-methyl-7-[3-(naphthalen-1-yloxy)propyl]-3-(trifluoromethyl)-1,10,11,12,13,15-hexahydropyrazolo[4′,3′:9,10][1,6]oxazacycloundecino[8,7,6-hi]indole-8-carboxylic Acid]	2.02e-05	3.11e-05	28.7	0.0058	1.04e-05	10	1.27e-05						
CCc1nn(C)c2c1-c1c(C)ccc3c(C(C)CCOc4cccc5cc(F)ccc45)c(C(=O)O)n(c13)CCCCOC2 (single isomer, unassigned) [Example 264, 3-ethyl-7-{4-[(6-fluoronaphthalen-1-yl)oxy]butan-2-yl}-1,4-dimethyl-1,10,11,12,13,15-hexahydropyrazolo[4′,3′:9,10][1,6]oxazacycloundecino[8,7,6-hi]indole-8-carboxylic Acid]				0.132				1.92e-05	> 3.3e-05	> 33	> 3.3e-05	> 33	1.67e-05
CCc1c2c(nn1C)COCCCCn1c(C(=O)O)c(CCCOc3cccc4ccccc34)c3cccc-2c31 (single isomer, unassigned; enantiomer 2) [Example 149, 3-Ethyl-2-methyl-7-[3-(1-naphthyloxy)propyl]-2,10,11,12,13,15-hexahydropyrazolo[4′,3′:9,10][1,6]oxazacycloundecino[8,7,6-hi]indole-carboxylic acid-N-ethylethanamine Salt (Enantiomer 2)]				0.0666				2.84e-05	> 3.3e-05	> 33	> 3.3e-05	> 33	1.26e-05
CCc1nn(C)c2c1-c1c(C)ccc3c(C(C)CCOc4cccc5cc(F)ccc45)c(C(=O)O)n(c13)CCCCOC2 (single isomer, unassigned) [Example 262, 3-ethyl-7-{4-[(6-fluoronaphthalen-1-yl)oxy]butan-2-yl}-1,4-dimethyl-1,10,11,12,13,15-hexahydropyrazolo[4′,3′:9,10][1,6]oxazacycloundecino[8,7,6-hi]indole-8-carboxylic Acid]				0.0388				7.54e-06	2.15e-05	> 33	1.67e-05	22.6	4.2e-06
COc1c2c(nn1C)COCCCCn1c(C(=O)O)c(CCCOc3cccc4ccccc34)c3cccc-2c31 (single isomer, unassigned) [Example 209, 3-methoxy-2-methyl-7-[3-(naphthalen-1-yloxy)propyl]-2,10,11,12,13,15-hexahydropyrazolo[4′,3′:9,10][1,6]oxazacycloundecino[8,7,6-hi]indole-8-carboxylate]				0.025				1.58e-05	> 3.3e-05	> 33	> 3.3e-05	> 33	1.58e-05
CCn1nc(C2CC2)c2c1COCCCCn1c(C(=O)O)c(CCCOc3cccc4ccccc34)c3cccc-2c31 (single isomer, unassigned; enantiomer 2) [Example 090, 3-cyclopropyl-1-ethyl-7-[3-(naphthalen-1-yloxy)propyl]-1,10,11,12,13,15-hexahydropyrazolo[4′3′:9,10][1,6]oxazacycloundecino[8,7,6-hi]indole-8-carboxylic acid-N-ethylethanamine Salt (Enantiomer 2)]				0.0103				1.98e-05	> 3.3e-05	> 33	> 3.3e-05	> 33	1.5e-05
Cc1nn(C)c2c1-c1cccc3c(CCCOc4cccc5cc(Cl)ccc45)c(C(=O)O)n(c13)CCCCOC2 (single isomer, unassigned; enantiomer 2) [Example 042, 7-{3-[(6-chloronaphthalen-1-yl)oxy]propyl}-1,3-dimethyl-1,10,11,12,13,15-hexahydropyrazolo[4′3′:9,10][1,6]oxazacycloundecino[8,7,6-hi]indole-carboxylic acid-N-ethylethanamine Salt (Enantiomer 2)]				0.0566				1.02e-05	3e-05	> 33	> 3.3e-05	> 33	4.97e-06
Cc1c2c(nn1CC(F)(F)F)COC/C=C\Cn1c(C(=O)O)c(CCCOc3cccc4ccccc34)c3cccc-2c31 (racemic) [Example 091, (rac)-(11Z)-3-methyl-7-[3-(naphthalen-1-yloxy)propyl]-2-(2,2,2-trifluoroethyl)-2,10,13,15-tetrahydropyrazolo[4′,3′:9,10][1,6]oxazacycloundecino[8,7,6-hi]indole-8-carboxylic Acid]	7.1e-06	1.89e-05	31.8	0.0202	1.48e-05	23.5	6.92e-06						
CCc1c2c(nn1C)COCCCCn1c(C(=O)O)c(CCCOc3cccc4ccccc34)c3ccc(C)c-2c31 (single isomer, unassigned; enantiomer 2) [Example 155, 3-Ethyl-2,4-dimethyl-7-[3-(1-naphthyloxy)propyl]-2,10,11,12,13,15-hexahydropyrazolo[4′,3′:9,10][1,6]oxazacycloundecino[8,7,6-hi]indole-8-carboxylic acid-N-ethylethanamine Salt (Enantiomer 2)]				0.048				2.25e-05	> 3.3e-05	> 33	> 3.3e-05	> 33	8.34e-06
